Values quoted from earlier work, collected in patent EP3850074B1, “BENEFIT AGENT DELIVERY PARTICLES” (Unilever Global IP Ltd, priority 2018, dated 2020).

Conditions: at 25°C and at atmospheric pressure

## Nc1nc(N)nc(N)n1 [melamine, 2,4,6-triamino-1,3,5-triazine]
  solubility in distilled water: about 0.3 g/L
